# Laboratory results as given in publication PMC12703733, “Probing Guanidino Pendant or Bridged Groups in Cyclic Antimicrobial Peptides Derived from Temporin L: A Strategy to Improve Efficacy against Gram-Negative Bacteria” (Journal of Medicinal Chemistry, 2025).
# Where two headings read alike, the source gives them in different places. Marks after values point to notes of the source that are not given here. Bridge positions count the residues as written; N and C are the ends. Square brackets hold non-standard residues; d marks the D form. Peptide text beside a SMILES is read from it. Phe(4-guanidino) = N=C(N)Nc1ccc(C[C@H](N)C(=O)O)cc1
# Tests used:
# [1] = system: S. aureus ATCC 25923; parameters: method as in Bellavita et al.; settings: previously determined for peptide 12, ref Bellavita et al., cited from earlier work
# [2] = system: B. megaterium BM11; parameters: method as in Bellavita et al.; settings: previously determined for peptide 12, ref Bellavita et al., cited from earlier work
# [3] = system: E. coli D21; assay: microbe, parasite or virus in culture; format: cell-based; settings: D21
# Procedure, shortened: (§1)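 MH broth, inoculum 2 × 10^6 cell/mL from mid-log culture; 37 °C incubation; MIC = three identical readings, four independent expts.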
# [4] = system: S. agalactiae ATCC 27591; assay: microbe, parasite or virus in culture; format: cell-based; settings: ATCC 27591
# Procedure, shortened: as §1
# [5] = system: E. faecalis ATCC 29212; assay: microbe, parasite or virus in culture; format: cell-based; settings: ATCC 29212
# Procedure, shortened: as §1
# [6] = system: P. aeruginosa PAO1; assay: microbe, parasite or virus in culture; format: cell-based; settings: PAO1
# Procedure, shortened: as §1
# [7] = system: P. aeruginosa ATCC 27853; parameters: method as in Bellavita et al.; settings: previously determined for peptide 12, ref Bellavita et al.; cited from earlier work
# [8] = system: Gram-negative bacteria tested; assay: MIC panel, Gram-negative strains (geometric mean); format: cell-based; settings: geometric mean of the MICs against Gram-negative bacteria tested
# Experimental: (§2) The antimicrobial efficacy of the TLcyc analogues was assessed against a representative panel of Gram-positive and Gram-negative bacterial strains, by determining their minimal inhibitory concentrations (MIC), as summarized in Table . To provide an integrated measure of antimicrobial potency, we calculated the geometric mean (GM) of MIC values across all strains (GMall), as well as separately for Gram-positive (GMGram+) and Gram-negative (GMGram–) bacteria.
# (§3) Bacterial strains used in this study were the Gram-positive S. aureus ATCC 25923, S. epidermidis ATCC 12228, B. megaterium BM11, S. agalactiae ATCC 27591, E. faecalis ATCC 29212 and the Gram-negative E. coli ATCC 25922, P. aeruginosa ATCC 27853, A. baumannii ATCC 19606, E. coli D21 and P. aeruginosa PAO1. […] Bacterial cells in the mid log phase were diluted in Muller Hinton (MH) at a concentration of 2 × 10^6 cell/mL. Aliquots of 50 μL of this bacterial suspension were added to 50 μL of MH containing serial 2-fold dilutions of the peptides (from 100 to 0.19 μM) in the wells a 96-well plate. Ciprofloxacin was used as antibiotic control. The plate was then incubated at 37 °C. MICs were obtained from three identical readings of four independent experiments.
# [9] = system: E. coli ATCC 25922; parameters: method as in Bellavita et al.; settings: previously determined for peptide 12, ref Bellavita et al., cited from earlier work
# [10] = system: A. baumannii ATCC 19606; parameters: method as in Bellavita et al.; settings: previously determined for peptide 12, ref Bellavita et al., cited from earlier work
# [11] = system: all bacteria tested; assay: MIC panel, geometric mean over all strains; format: cell-based; settings: geometric mean of the MICs against all bacteria tested
# Experimental: as §2, §3
# [12] = system: Gram-positive bacteria tested; assay: MIC panel, Gram-positive strains (geometric mean, range); format: cell-based; settings: geometric mean of the MICs against Gram-positive bacteria tested
# Experimental: as §2, §3
# [13] = parameters: method as in Bellavita et al.; settings: CD in H2O; previously determined for peptide 12; ref Bellavita et al.; cited from earlier work
# [14] = system: S. epidermidis ATCC 12228; parameters: method as in Bellavita et al.; settings: previously determined for peptide 12, ref Bellavita et al., cited from earlier work
# [15] = system: P. aeruginosa ATCC 27853; assay: microbe, parasite or virus in culture; format: cell-based; settings: ATCC 27853
# Procedure, shortened: as §1
# [16] = system: S. aureus ATCC 25923; assay: microbe, parasite or virus in culture; format: cell-based; settings: ATCC 25923
# Procedure, shortened: as §1
# [17] = system: B. megaterium BM11; assay: microbe, parasite or virus in culture; format: cell-based; settings: BM11
# Procedure, shortened: as §1
# [18] = system: E. coli ATCC 25922; assay: microbe, parasite or virus in culture; format: cell-based; settings: ATCC 25922
# Procedure, shortened: as §1
# [19] = system: A. baumannii ATCC 19606; assay: microbe, parasite or virus in culture; format: cell-based; settings: ATCC 19606
# Procedure, shortened: as §1
# [20] = system: S. epidermidis ATCC 12228; assay: microbe, parasite or virus in culture; format: cell-based; settings: ATCC 12228
# Procedure, shortened: as §1
# [21] = circular dichroism; settings: water; pH ns; 25 °C; 150 uM
# [22] = format: cell-based; settings: Cell viability (%)
# Experimental: For the evaluation of peptides’ cytotoxicity, the human immortalized keratinocytes (HaCaT cells), purchased from AddexBio (San Diego, CA, USA), and BEAS-2B were used. HaCaT cells were cultured in Dulbecco’s modified Eagle’s medium supplemented with 4 mM glutamine (DMEM), 10% heat-inactivated fetal bovine serum (FBS), and 0.1 mg/mL of penicillin and streptomycin, at 37 °C and 5% CO2. BEAS-2B cells were cultured in RPMI, supplemented with 2 mM glutamine (DMEM), 10% heat-inactivated fetal bovine serum (FBS), 1 mM sodium pyruvate, and 0.1 mg/mL of penicillin and streptomycin, at 37 °C and 5% CO2. Cytotoxicity was tested in vitro using a colorimetric assay that relies on the intracellular reduction of the yellow 3-(4,5-dimethylthiazol-2-yl)-2,5-diphenyltetrazolium bromide salt (MTT) by mitochondrial dehydrogenases of metabolically active cells in formazan crystals (purple). About 4 × 10^4 HaCaT and BEAS-2B cells, suspended in DMEM supplemented with 2% FBS, were plated in triplicate wells of a 96-well microtiter plate. The plate was incubated overnight at 37 °C and 5% CO2. Then, the cells were treated with different concentrations of the peptide (from 100 to 3.12 μM) in a fresh serum-free medium for 2 h and for a longer time (24 h). Following peptide treatment, the medium was removed, and MTT (0.5 mg/mL) solution in Hank’s buffer (136 mM NaCl, 4.2 mM Na2HPO4, 4.4 mM KH2PO4, 5.4 mM KCl, 4.1 mM NaHCO3, pH 7.2, supplemented with 20 mM D-glucose) was added to each well of the plate, that was then incubated for 4 h at 37 °C and 5% CO2. The purple formazan crystals were dissolved using acidified 2-propanol and a microplate reader (Infinite M200; Tecan, Salzburg, Austria) was used to measure the absorbance of each well at 570 nm. The percentage of cell viability was calculated compared to the control, which consisted of cells without any peptide treatment (corresponding to 100% viability) and all data represent the mean of three independent experiments ± SEM.
# [23] = system: human keratinocytes (HaCaT cells); format: cell-based; settings: human, 24 h
# Procedure, shortened: (§4)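 Cells were plated at about 4 × 10^4/well in 2% FBS, then exposed to peptide at 100–3.12 μM in serum-free medium for 2 h or 24 h. Viability was measured by MTT reduction (0.5 mg/mL, 4 h, absorbance 570 nm) relative to untreated cells, as the mean ± SEM of three experiments.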
# [24] = format: cell-based, human; settings: human
# Procedure, shortened: as §4
# [25] = in vitro; format: in vitro ADME; settings: isolated enzyme chymotrypsin, pH 7.8
# Experimental: Peptide stability was evaluated by modifying previously described procedures. , The assays were performed in human serum and in the presence of proteolytic enzymes such as trypsin and chymotrypsin. For human serum stability, 2 mM peptide stock solutions were prepared in water and mixed with human serum (from male AB plasma, USA origin, sterile-filtered, Merck/Sigma-Aldrich, USA) to obtain a final concentration of 200 μM [human plasma/stock solution (9:1, v/v)]. The mixtures were incubated at 37 ± 1 °C, and 50 μL aliquots were taken at predetermined time intervals (0, 1, 2, 4, 8, and 24 h). Protease activity was quenched by adding 100 μL of acetonitrile (MeCN). The resulting cloudy suspensions were cooled to 4 °C for 30 min and centrifugated at 12,000 rpm for 10 min to remove the serum proteins. Then, the supernatants were analyzed by analytical HPLC (Shimadzu Nexera Liquid Chromatograph LC-30AD) which was equipped with a Phenomenex Kinetex reversed-phase column (C18, 5 μm, 100 Å, 150 mm × 4.6 mm) with a flow rate of 1 mL/min using a gradient of MeCN (0.1% TFA) in water (0.1% TFA), from 10 to 70% over 15 min, and UV detection at 220 nm. For enzyme stability, each peptide peptide (200 μM) was incubated with trypsin (0.5 μM) in PBS 1× (pH 7.2) or with chymotrypsin (0.005 μM) in Tris–HCl (100 mM, pH 7.8). Samples (50 μL) were collected at 0, 1, 2, 4, and 24 h, quenched with 0.5% TFA in water, and analyzed by HPLC under chromatographic conditions as described above. All experiments were conducted in triplicate. The percentage of intact peptides at each time point was determined by integrating the corresponding HPLC peak areas.
# [26] = system: S. aureus ATCC 25923; format: cell-based
# Experimental: The ability of peptides to alter the bacterial membrane permeability of planktonic cells of S. aureus ATCC 25923 and P. aeruginosa ATCC 27853 was determined by the Sytox Green assay. Approximately 1 × 10^6 cells in 100 μL of PBS were combined with 1 μM Sytox Green in the dark for 5 min. The fluorescence intensity was monitored using a microplate reader (Infinite M200, Tecan), with excitation and emission at λ = 485 and 535 nm, respectively. Peptides were added (time = 0) at three different concentrations (i.e., 3.12, 6.25, and 12.5 μM). Increase in the fluorescence intensity is due to the binding of the dye to intracellular nucleic acids. Controls consisted of cells that were not exposed to the peptides. The values correspond to one representative experiment out of three independent experiments.
smiles,measurement,setting,value
"CC[C@H](C)[C@H](NC(=O)[C@H](CCCNC(=N)N)NC(=O)[C@@H]1CCC(=O)NCCCC[C@H](NC(=O)[C@H](Cc2ccccc2)NC(=O)[C@H](Cc2c[nH]c3ccccc23)NC(=O)[C@@H]2CCCN2C(=O)[C@@H](NC(=O)[C@@H](N)Cc2ccccc2)C(C)C)C(=O)N[C@@H](CCCCN)C(=O)N[C@@H](Cc2ccccc2)C(=O)N[C@H](CC(C)C)C(=O)N1)C(=O)N[C@@H](CC(C)C)C(N)=O [Peptide 1, FVPWF[KKFlE]RIL] (H-FVPWFKKF[dL]ERIL-NH2; lactam 6-10)",MIC,[1]; listed as 1 (TL cyc ),3.12 ^a μM
same,MIC,[1],3.12 µM
same,MIC,[2]; listed as 1 (TL cyc ),1.56 ^a μM
same,MIC,[2],1.56 µM
same,MIC,[3],12.5 µM
same,MIC,[4],3.12 µM
same,MIC,[5],6.25 µM
same,MIC,[6],25 µM
same,MIC,[7],100 ^a μM
same,geometric mean GMGram–,[8],18.9 µM
same,MIC,[9]; listed as 1 (TL cyc ),25 ^a μM
same,MIC,[9],25 µM
same,MIC,[10]; listed as 1 (TL cyc ),3.12 ^a μM
same,MIC,[10],3.12 µM
same,geometric mean GMall,[11],7.67 µM
same,geometric mean GMGram+,[12],3.12 µM
same,Content in water (%) random,[13],55%
same,Content in water (%) α-helix,[13],2%
same,Content in water (%) β-strand,[13],41%
same,MIC,[14]; listed as 1 (TL cyc ),3.12 ^a μM
same,MIC,[14],3.12 µM
"CC[C@H](C)[C@H](NC(=O)[C@H](CCCNC(=N)N)NC(=O)[C@H]1CCC(=O)NCCCC[C@H](NC(=O)[C@H](Cc2ccccc2)NC(=O)[C@H](Cc2c[nH]c3ccccc23)NC(=O)[C@@H]2CCCN2C(=O)[C@@H](NC(=O)[C@@H](N)Cc2ccc(NC(=N)N)cc2)C(C)C)C(=O)N[C@@H](CCCCN)C(=O)N[C@@H](Cc2ccccc2)C(=O)N[C@H](CC(C)C)C(=O)N1)C(=O)N[C@@H](CC(C)C)C(N)=O [Peptide 6, (p-guanidino)FVPWF[KKFle]RIL] (H-[Phe(4-guanidino)]VPWFKKF[dL][dE]RIL-NH2; lactam 6-10)",MIC,[3],3.12 µM
same,MIC,[15],25 µM
same,MIC,[4],1.56 µM
same,MIC,[16],25 µM
same,MIC,[5],12.5 µM
same,MIC,[17],0.78 µM
same,MIC,[18],6.25 µM
same,MIC,[19],3.12 µM
same,MIC,[20],3.12 µM
same,helicity,[21],16%
same,"viability at 2 h, 3.12 µM",[22],111%
same,"viability at 2 h, 6.25 µM",[22],119%
same,"viability at 2 h, 12.5 µM",[22],114%
same,"viability at 2 h, 25 µM",[22],100%
same,"viability at 2 h, 50 µM",[22],30%
same,"viability at 24 h, 3.12 µM",[22],104%
same,"viability at 24 h, 6.25 µM",[22],111%
same,"viability at 24 h, 12.5 µM",[22],111%
same,"viability at 24 h, 25 µM",[22],107%
same,"viability at 24 h, 50 µM",[22],33%
same,"viability at 24 h, 100 µM",[22],4%
same,CC50,[23],59.6 µM
same,Cell viability (%),[23]; 50 µM,81 ± 4%
same,CC50 at 24 h,[24]; CC50,> 50 µM
same,"viability at 2 h, 3.12 µM",[24]; Cell viability (%),102%
same,"viability at 2 h, 6.25 µM",[24]; Cell viability (%),101%
same,"viability at 2 h, 12.5 µM",[24]; Cell viability (%),101%
same,"viability at 2 h, 25 µM",[24]; Cell viability (%),101%
same,"viability at 2 h, 100 µM",[24]; Cell viability (%),13%
same,"viability at 24 h, 3.12 µM",[24]; Cell viability (%),100 ± 2%
same,"viability at 24 h, 6.25 µM",[24]; Cell viability (%),93 ± 2%
same,"viability at 24 h, 12.5 µM",[24]; Cell viability (%),86 ± 4%
same,"viability at 24 h, 25 µM",[24]; Cell viability (%),86 ± 2%
same,"viability at 24 h, 50 µM",[24]; Cell viability (%),> 70%
same,"viability at 24 h, 100 µM",[24]; Cell viability (%),2 ± 1%
same,"remaining at 4 h, 200 μM",[25],~20%
same,"membrane permeabilization, Sytox Green fluorescence (in words)",[26],lower effect
